Read-outs that look alike come from different tables or passages of the source.
Key:
[1] = system: P. aeruginosa
[2] = system: K. pneumoniae
[3] = system: P. aeruginosa strains with elevated MICs to Polymyxin B; assay: MIC against strains with elevated MICs to Polymyxin B; assay type: cell-based, Pseudomonas aeruginosa; conditions: Table 6D; for MIC P. aeruginosa 065: strain 065, elevated MIC to Polymyxin B; for MIC P. aeruginosa 066: strain 066, elevated MIC to Polymyxin B; for MIC P. aeruginosa 067: strain 067, elevated MIC to Polymyxin B
Protocol: (§1) The inoculum was prepared by making a direct suspension of isolated colonies (selected from an 18-24 hour Mueller-Hinton agar plate) adjusted to the 0.5 McFarland standard. […] The assays were performed in duplicate. […] In cases where the duplicate values varied by less than 2-fold, the lower of the two values is reported. If a variation of greater than 2-fold was observed, the assay was considered non-valid. Several of the compounds were subjected to multiple tests, and where this is the case, the MIC reflects the modal value obtained.
(§2) The Further Synthesis Examples were tested against a range of Gram negative bacteria, and tested for HK-2 cell toxicity. All the worked examples, including the Synthesis and Further Synthesis Examples, were also tested against a range of Gram negative bacteria that are resistant to Polymyxin B (i.e. those strains where Polymyxin B has an elevated MIC value).

[4] = system: A. baumannii
[5] = system: K. pneumoniae strains with elevated MICs to Polymyxin B; assay: MIC against strains with elevated MICs to Polymyxin B; assay type: cell-based, Klebsiella pneumoniae; conditions: Table 6D; for MIC K. pneumoniae 062: strain 062, elevated MIC to Polymyxin B; for MIC K. pneumoniae 063: strain 063, elevated MIC to Polymyxin B; for MIC K. pneumoniae 064: strain 064, elevated MIC to Polymyxin B; for MIC K. pneumoniae 655: strain 655, elevated MIC to Polymyxin B
Protocol: as §1, §2

[6] = system: E. coli strains with elevated MICs to Polymyxin B; assay: as above; assay type: cell-based, Escherichia coli; conditions: Table 6D; for MIC E. coli 058: strain 058, elevated MIC to Polymyxin B; for MIC E. coli 059: strain 059, elevated MIC to Polymyxin B; for MIC E. coli 060: strain 060, elevated MIC to Polymyxin B; for MIC E. coli 061: strain 061, elevated MIC to Polymyxin B
Protocol: as §1, §2

[7] = system: A. baumanii strains with elevated MICs to Polymyxin B; assay: as above; assay type: cell-based, Acinetobacter baumannii; conditions: Table 6D; for MIC A. baumannii 053: strain 053, elevated MIC to Polymyxin B; for MIC A. baumannii 056: strain 056, elevated MIC to Polymyxin B; for MIC A. baumannii 068: strain 068, elevated MIC to Polymyxin B; for MIC A. baumannii 070: strain 070, elevated MIC to Polymyxin B
Protocol: as §1, §2

[8] = system: E. coli
[9] = absence of a second agent, Table 6B

4-octylpiperidine-3- carbonyl polymyxin B nonapeptide [Example D35]
MIC, P. aeruginosa ATCC 27853 [1, 9]: 1 micrograms/mL | MIC, P. aeruginosa CCUG 59347 [1, 9]: 1 micrograms/mL | MIC, K. pneumoniae ATCC 4352 [2, 9]: 2 micrograms/mL | MIC, K. pneumoniae ATCC BAA-2146 [2, 9]: 2 micrograms/mL | MIC P. aeruginosa 065 [3]: 0.25 micrograms/mL | MIC P. aeruginosa 066 [3]: 1 micrograms/mL | MIC P. aeruginosa 067 [3]: 4 micrograms/mL | MIC, A. baumannii ATCC BAA-747 [4, 9]: 2 micrograms/mL | MIC, A. baumannii NCTC 13424 [4, 9]: 1 micrograms/mL | MIC K. pneumoniae 062 [5]: 1 micrograms/mL | MIC K. pneumoniae 063 [5]: 2 micrograms/mL | MIC K. pneumoniae 064 [5]: 1 micrograms/mL | MIC K. pneumoniae 655 [5]: 4 micrograms/mL | MIC E. coli 058 [6]: 1 micrograms/mL | MIC E. coli 059 [6]: 0.5 micrograms/mL | MIC E. coli 060 [6]: 2 micrograms/mL | MIC E. coli 061 [6]: 4 micrograms/mL | MIC A. baumannii 053 [7]: 32 micrograms/mL | MIC A. baumannii 056 [7]: 8 micrograms/mL | MIC A. baumannii 068 [7]: 1 micrograms/mL | MIC A. baumannii 070 [7]: 1 micrograms/mL | MIC, E. coli ATCC 25922 [8, 9]: 1 micrograms/mL | MIC, E. coli NCTC 13441 [8, 9]: 1 micrograms/mL

1-(2- hydroxybenzyl)pi- perazine-2- carbonyl Polymyxin B nonapeptide [Example D67]
MIC, P. aeruginosa ATCC 27853 ([1]; sole activity, Table 6C): 0.25 micrograms/mL | MIC, P. aeruginosa CCUG 59347 ([1]; sole activity, Table 6C): 0.5 micrograms/mL | MIC, K. pneumoniae ATCC 4352 ([2]; sole activity, Table 6C): 0.03 micrograms/mL | MIC, K. pneumoniae ATCC BAA-2146 ([2]; sole activity, Table 6C): 0.06 micrograms/mL | MIC P. aeruginosa 065 [3]: 4 micrograms/mL | MIC, A. baumannii ATCC BAA-747 ([4]; sole activity, Table 6C): 0.5 micrograms/mL | MIC, A. baumannii NCTC 13424 ([4]; sole activity, Table 6C): 0.25 micrograms/mL | MIC K. pneumoniae 063 [5]: 128 micrograms/mL | MIC E. coli 058 [6]: 8 micrograms/mL | MIC E. coli 059 [6]: 64 micrograms/mL | MIC E. coli 060 [6]: 16 micrograms/mL | MIC A. baumannii 053 [7]: >256 micrograms/mL | MIC A. baumannii 068 [7]: 64 micrograms/mL | MIC, E. coli ATCC 25922 ([8]; sole activity, Table 6C): 0.06 micrograms/mL | MIC, E. coli NCTC 13441 ([8]; sole activity, Table 6C): 0.125 micrograms/mL

5- isobutoxypiperidine- 3-carbonyl L- Thr-L-Dap- polymyxin B heptapeptide [Example D70]
MIC, P. aeruginosa ATCC 27853 ([1]; sole activity, Table 6C): 0.25 micrograms/mL | MIC, P. aeruginosa CCUG 59347 ([1]; sole activity, Table 6C): 0.5 micrograms/mL | MIC, K. pneumoniae ATCC 4352 ([2]; sole activity, Table 6C): 0.06 micrograms/mL | MIC P. aeruginosa 065 [3]: 4 micrograms/mL | MIC P. aeruginosa 066 [3]: 16 micrograms/mL | MIC P. aeruginosa 067 [3]: >256 micrograms/mL | MIC, A. baumannii ATCC BAA-747 ([4]; sole activity, Table 6C): 0.06 micrograms/mL | MIC, A. baumannii NCTC 13424 ([4]; sole activity, Table 6C): 0.125 micrograms/mL | MIC K. pneumoniae 062 [5]: 64 micrograms/mL | MIC K. pneumoniae 063 [5]: 64 micrograms/mL | MIC K. pneumoniae 064 [5]: 6 micrograms/mL | MIC K. pneumoniae 655 [5]: 32 micrograms/mL | MIC E. coli 058 [6]: 4 micrograms/mL | MIC E. coli 059 [6]: 8 micrograms/mL | MIC E. coli 060 [6]: 4 micrograms/mL | MIC E. coli 061 [6]: 16 micrograms/mL | MIC A. baumannii 053 [7]: >256 micrograms/mL | MIC A. baumannii 056 [7]: 16 micrograms/mL | MIC A. baumannii 068 [7]: 8 micrograms/mL | MIC A. baumannii 070 [7]: 32 micrograms/mL | MIC, E. coli ATCC 25922 ([8]; sole activity, Table 6C): 0.125 micrograms/mL | MIC, E. coli NCTC 13441 ([8]; sole activity, Table 6C): 0.125 micrograms/mL

(trans-5- octylpiperidine)-3- carbonyl polymyxin B nonapeptide [Example D23]
MIC, P. aeruginosa ATCC 27853 [1, 9]: 0.5 micrograms/mL | MIC, P. aeruginosa CCUG 59347 [1, 9]: 0.5 micrograms/mL | MIC, K. pneumoniae ATCC BAA-2146 [2, 9]: 1 micrograms/mL | MIC P. aeruginosa 065 [3]: 0.5 micrograms/mL | MIC P. aeruginosa 066 [3]: 1 micrograms/mL | MIC P. aeruginosa 067 [3]: 8 micrograms/mL | MIC, A. baumannii ATCC BAA-747 [4, 9]: 0.25 micrograms/mL | MIC, A. baumannii NCTC 13424 [4, 9]: 0.25 micrograms/mL | MIC K. pneumoniae 062 [5]: 4 micrograms/mL | MIC K. pneumoniae 063 [5]: 4 micrograms/mL | MIC K. pneumoniae 064 [5]: 1 micrograms/mL | MIC K. pneumoniae 655 [5]: 4 micrograms/mL | MIC E. coli 058 [6]: 0.5 micrograms/mL | MIC E. coli 059 [6]: 0.25 micrograms/mL | MIC E. coli 060 [6]: 1 micrograms/mL | MIC E. coli 061 [6]: 1 micrograms/mL | MIC A. baumannii 053 [7]: 2 micrograms/mL | MIC A. baumannii 056 [7]: 0.5 micrograms/mL | MIC A. baumannii 068 [7]: 1 micrograms/mL | MIC A. baumannii 070 [7]: 1 micrograms/mL | MIC, E. coli NCTC 13441 [8, 9]: 1 micrograms/mL

(trans-5- (cyclohexyl- piperidine)-3- carbonyl L-Thr-L- Dap-polymyxin B heptapeptide [Example D78]
MIC, P. aeruginosa ATCC 27853 ([1]; sole activity, Table 6C): 0.5 micrograms/mL | MIC, P. aeruginosa CCUG 59347 ([1]; sole activity, Table 6C): 0.5 micrograms/mL | MIC, K. pneumoniae ATCC 4352 ([2]; sole activity, Table 6C): 0.06 micrograms/mL | MIC, K. pneumoniae ATCC BAA-2146 ([2]; sole activity, Table 6C): 0.125 micrograms/mL | MIC P. aeruginosa 065 [3]: 1 micrograms/mL | MIC P. aeruginosa 066 [3]: 0.5 micrograms/mL | MIC P. aeruginosa 067 [3]: 32 micrograms/mL | MIC, A. baumannii ATCC BAA-747 ([4]; sole activity, Table 6C): 0.06 micrograms/mL | MIC, A. baumannii NCTC 13424 ([4]; sole activity, Table 6C): 0.06 micrograms/mL | MIC K. pneumoniae 063 [5]: 4 micrograms/mL | MIC K. pneumoniae 064 [5]: 1 micrograms/mL | MIC K. pneumoniae 655 [5]: 4 micrograms/mL | MIC E. coli 058 [6]: 0.5 micrograms/mL | MIC E. coli 059 [6]: 0.5 micrograms/mL | MIC E. coli 060 [6]: 1 micrograms/mL | MIC E. coli 061 [6]: 1 micrograms/mL | MIC A. baumannii 053 [7]: 8 micrograms/mL | MIC A. baumannii 056 [7]: 50.25 micrograms/mL | MIC A. baumannii 068 [7]: 1 micrograms/mL | MIC A. baumannii 070 [7]: 1 micrograms/mL | MIC, E. coli ATCC 25922 ([8]; sole activity, Table 6C): 0.125 micrograms/mL | MIC, E. coli NCTC 13441 ([8]; sole activity, Table 6C): 0.125 micrograms/mL

(trans-5-(isobutyl- piperidine)-3- carbonyl L-Thr-L- Dap-polymyxin E heptapeptide [Example D77]
MIC, P. aeruginosa ATCC 27853 ([1]; sole activity, Table 6C): 0.5 micrograms/mL | MIC, P. aeruginosa CCUG 59347 ([1]; sole activity, Table 6C): 1 micrograms/mL | MIC, K. pneumoniae ATCC 4352 ([2]; sole activity, Table 6C): 0.125 micrograms/mL | MIC, K. pneumoniae ATCC BAA-2146 ([2]; sole activity, Table 6C): 0.125 micrograms/mL | MIC P. aeruginosa 065 [3]: 4 micrograms/mL | MIC P. aeruginosa 066 [3]: 2 micrograms/mL | MIC P. aeruginosa 067 [3]: 128 micrograms/mL | MIC, A. baumannii ATCC BAA-747 ([4]; sole activity, Table 6C): 0.06 micrograms/mL | MIC, A. baumannii NCTC 13424 ([4]; sole activity, Table 6C): 0.06 micrograms/mL | MIC K. pneumoniae 062 [5]: 32 micrograms/mL | MIC K. pneumoniae 063 [5]: 16 micrograms/mL | MIC K. pneumoniae 064 [5]: 4 micrograms/mL | MIC K. pneumoniae 655 [5]: 16 micrograms/mL | MIC E. coli 058 [6]: 2 micrograms/mL | MIC E. coli 059 [6]: 4 micrograms/mL | MIC E. coli 060 [6]: 1 micrograms/mL | MIC E. coli 061 [6]: 4 micrograms/mL | MIC A. baumannii 053 [7]: 64 micrograms/mL | MIC A. baumannii 068 [7]: 4 micrograms/mL | MIC A. baumannii 070 [7]: 4 micrograms/mL | MIC, E. coli ATCC 25922 ([8]; sole activity, Table 6C): 0.06 micrograms/mL | MIC, E. coli NCTC 13441 ([8]; sole activity, Table 6C): 0.06 micrograms/mL

cis-5- (benzylcarbamoyl) piperidine-3- carbonyl L-Thr-L- Dap-polymyxin B heptapeptide [Example D75]
MIC, P. aeruginosa ATCC 27853 ([1]; sole activity, Table 6C): 0.5 micrograms/mL | MIC, P. aeruginosa CCUG 59347 ([1]; sole activity, Table 6C): 0.5 micrograms/mL | MIC, K. pneumoniae ATCC 4352 ([2]; sole activity, Table 6C): 0.06 micrograms/mL | MIC, K. pneumoniae ATCC BAA-2146 ([2]; sole activity, Table 6C): 0.125 micrograms/mL | MIC P. aeruginosa 065 [3]: 4 micrograms/mL | MIC P. aeruginosa 066 [3]: 8 micrograms/mL | MIC, A. baumannii ATCC BAA-747 ([4]; sole activity, Table 6C): 0.06 micrograms/mL | MIC, A. baumannii NCTC 13424 ([4]; sole activity, Table 6C): 0.125 micrograms/mL | MIC K. pneumoniae 062 [5]: 128 micrograms/mL | MIC K. pneumoniae 063 [5]: 64 micrograms/mL | MIC K. pneumoniae 064 [5]: 8 micrograms/mL | MIC K. pneumoniae 655 [5]: 64 micrograms/mL | MIC E. coli 058 [6]: 4 micrograms/mL | MIC E. coli 059 [6]: 8 micrograms/mL | MIC E. coli 060 [6]: 4 micrograms/mL | MIC E. coli 061 [6]: 8 micrograms/mL | MIC A. baumannii 053 [7]: 64 micrograms/mL | MIC A. baumannii 056 [7]: 8 micrograms/mL | MIC A. baumannii 068 [7]: 16 micrograms/mL | MIC A. baumannii 070 [7]: 32 micrograms/mL | MIC, E. coli ATCC 25922 ([8]; sole activity, Table 6C): 0.06 micrograms/mL | MIC, E. coli NCTC 13441 ([8]; sole activity, Table 6C): 0.125 micrograms/mL

Source: patent publication US20210221848A1, “POLYMYXIN DERIVATIVES AND THEIR USE IN COMBINATION THERAPY TOGETHER WITH DIFFERENT ANTIBIOTICS” (priority 2014, published 2021)
